Counter-ions that a name gives are not always drawn.

The first test has as its system MHC-I expression by COLO 205 cells. The experiment in a line: cells. Conditions: Homo sapiens, COLO 205, 48 h, MHC-I expression, COLO 205 cells, compounds at 35 μM, 48 hours, flow cytometry (W6/32); read-out: Induction Fold. The test is classed as cell-based, human. As to the method: A panel of synthetic cannabinoids (Cayman Chemical, #9002891) was tested for MHC class I-inducing capability in COLO 205 cells as described above. COLO 205 cells were treated with the compounds at a concentration of 35 μM and evaluated for cell surface MHC class I expression after 48 hours. Cells were harvested, stained with MHC-I mAb W6/32 (Thermo Fisher). MHC-I expression was determined by flow cytometry.
Take `CCCCn1cc(C(=O)c2ccc(OC)cc2)c2ccccc21` [Example 282, (4-methoxyphenyl)(1-butyl-1H-indol-3-yl)-methanone]: the fold induction at 35 µM is 1.47.

Turning to `O=C(c1ccc(I)cc1)c1cn(CCCCCF)c2ccccc12` [Example 283, (1-(5-fluoropentyl)-1H-indol-3-yl)(4-iodophenyl)methanone], the fold induction at 35 µM is 1.46.

With `CC(C)Cn1cc(C(=O)c2ccc3ccccc3c2)c2ccccc21` [Example 284, (1-isobutyl-1H-indol-3-yl)(naphthalen-2-yl)methanone], the fold induction at 35 µM stood at 1.46. In the case of `CCCCCn1cc(C(=O)c2cccc3cc(Cl)ccc23)c2ccccc21` [Example 285, (6-chloronaphthalen-1-yl)(1-pentyl-1H-indol-3-yl)methanone], the fold induction at 35 µM amounted to 1.46. Consider `O=C(Nc1cccc2ccccc12)c1cn(CCCCCF)c2ccccc12` [Example 286, 1-(5-fluoropentyl)-N-(naphthalen-1-yl)-1H-indole-3-carboxamide], for which the fold induction at 35 µM amounted to 1.45. `CN(C)C(=O)n1nnnc1Cc1ccc(-c2ccccc2)cc1` [Example 288, 5-([1,1′-biphenyl]-4-ylmethyl)-N,N-dimethyl-1H-tetrazole-1-carboxamide]: the fold induction at 35 µM was 1.45. Turning to `CC(C)(C)C(NC(=O)c1nn(CCCCCF)c2ccccc12)C(N)=O` (stereo not shown) [Example 289, N-[1-(aminocarbonyl)-2,2-dimethylpropyl]-1-(5-fluoropentyl)-1H-indazole-3-carboxamide], the fold induction at 35 µM was 1.44.

With `CC(C)[C@H](NC(=O)c1nn(CCCCCF)c2ccccc12)C(N)=O` [Example 292, N-[(1S)-1-(aminocarbonyl)-2-methylpropyl]-1-(5-fluoropentyl)-1H-indazole-3-carboxamide], the fold induction at 35 µM turned out to be 1.43. With `CC(F)CCCn1nc(C(=O)NC(C(N)=O)C(C)C)c2ccccc21` (stereo not shown) [Example 293, N-(1-amino-3-methyl-1-oxobutan-2-yl)-1-(4-fluoropentyl)-1H-indazole-3-carboxamide], the fold induction at 35 µM was 1.43.

In the case of `CCCCCn1nc2ccccc2c1C(=O)Nc1cccc2ccccc12` [Example 294, N-(naphthalen-1-yl)-2-pentyl-2H-indazole-3-carboxamide], the fold induction at 35 µM is 1.43.

Consider `COc1cccc2c(C(=O)N[C@@H]3C(C)(C)[C@@H]4CC[C@@]3(C)C4)c(C)n(CCN3CCOCC3)c12` [Example 295, 7-methoxy-2-methyl-1-[2-(4-morpholinyl)ethyl]-N-[(1S,2S,4R)-1,3,3-trimethylbicyclo[2.2.1]hept-2-yl]-1H-indole-3-carboxamide], for which the fold induction at 35 µM was determined as 1.43. On the same count and under the same terms, in the case of `CCCC(F)Cn1cc(C(=O)Nc2cccc3ccccc23)c2ccccc21` (stereo not shown) [Example 296, 1-(2-fluoropentyl)-N-(naphthalen-1-yl)-1H-indole-3-carboxamide] it was 1.43; in that of `CC(C)(C)C(NC(=O)c1cn(CCCCCF)c2ccccc12)C(N)=O` (stereo not shown) [Example 297, N-[1-(aminocarbonyl)-2,2-dimethylpropyl]-1-(5-fluoropentyl)-1H-indole-3-carboxamide], 1.42. The same measure, in the same setting: to `CCCCCn1cc(C(=O)c2cccc3cc(OC)ccc23)c2ccccc21` [Example 300, (6-methoxy-1-naphthalenyl)(1-pentyl-1H-indol-3-yl)-methanone] belongs 1.42; to `CCCCCCc1ccc(O)cc1OCCCCCCCCCCC(=O)NC1CC1` [Example 302, N-cyclopropyl-11-(2-hexyl-5-hydroxyphenoxy)-undecanamide], 1.4; to `CCCCCC1=C/C(=C\c2cccc3ccccc23)c2ccccc21` [Example 303, 1-[(E)-(3-pentyl-1H-inden-1-ylidene)methyl]-naphthalene], 1.39. On the same count and under the same terms, in the case of `CN1CCCCC(n2cc(C(=O)C3C(C)(C)C3(C)C)c3ccccc32)C1` (stereo not shown) [Example 305, (1-(1-methylazepan-3-yl)-1H-indol-3-yl)(2,2,3,3-tetramethylcyclopropyl)methanone] it was 1.38; in that of `O=C(NCc1ccccc1)c1cn(CCCCCF)c2ccccc12` [Example 306, 1-(5-fluoropentyl)-N-(phenylmethyl)-1H-indole-3-carboxamide], 1.38; in that of `CCCCCn1cc(C(=O)Nc2ccccc2)c2ccccc21` [Example 307, 1-pentyl-N-phenyl-1H-indole-3-carboxamide], 1.38. Turning to `COc1ccc(C(=O)c2c(C)n(CCN3CCOCC3)c3ccccc23)cc1` [Example 308], the fold induction at 35 µM turned out to be 1.38.

Regarding `COc1ccc(C(=O)c2c(C)n(CCN3CCOCC3)c3cc(Br)ccc23)cc1` [Example 310, [6-bromo-2-methyl-1-[2-(4-morpholinyl)ethyl]-1H-indol-3-yl](4-methoxyphenyl)-methanone], the fold induction at 35 µM turned out to be 1.37.

Consider `CC(C)[C@H](NC(=O)c1cn(CCCCCF)c2ccccc12)C(N)=O` [Example 312, N-[(1S)-1-(aminocarbonyl)-2-methylpropyl]-1-(5-fluoropentyl)-1H-indole-3-carboxamide], for which the fold induction at 35 µM is 1.35. Same read-out and setting: to `CC(C)(NC(=O)c1cn(CCCCCF)c2ncccc12)c1ccccc1` [Example 313, 1-(5-fluoropentyl)-N-(2-phenylpropan-2-yl)-1H-pyrrolo[2,3-b] pyridine-3-carboxamide] belongs 1.33; to `O=C(Oc1ccc2ncccc2c1)c1cn(CC2CCCCC2)c2ccccc12` [Example 314, quinolin-6-yl 1-(cyclohexylmethyl)-1H-indole-3-carboxylate], 1.32; to `CCCCCn1c2ccccc2c2cc(C(=O)c3cccc4ccccc34)ccc21` [Example 315, naphthalen-1-yl(9-pentyl-9H-carbazol-3-yl)methanone], 1.32.

Regarding `CC(F)CCCn1cc(C(=O)c2cccc3ccccc23)c2ccccc21` (stereo not shown) [Example 316, (1-(4-fluoropentyl)-1H-indol-3-yl)(naphthalen-1-yl)methanone], the fold induction at 35 µM turned out to be 1.32. For the compound `CCCC(F)Cn1nc(C(=O)NC(C(N)=O)C(C)C)c2ccccc21` (stereo not shown) [Example 317, N-(1-amino-3-methyl-1-oxobutan-2-yl)-1-(2-fluoropentyl)-1H-indazole-3-carboxamide], the fold induction at 35 µM came out at 1.31.

Regarding `O=C(c1ccc2c(c1)c1ccccc1n2CCCCCF)c1cccc2ccccc12` [Example 318, (9-(5-fluoropentyl)-9H-carbazol-3-yl)(naphthalen-1-yl)methanone], the fold induction at 35 µM amounted to 1.31.

On to `COc1ccc(C(=O)c2c(C)n(CCN3CCOCC3)c3cc(I)ccc23)cc1` [Example 320, [6-iodo-2-methyl-1-[2-(4-morpholinyl)ethyl]-1H-indol-3-yl](4-methoxyphenyl)-methanone], for which the fold induction at 35 µM was 1.3. The same measure, in the same setting: to `CC(C)[C@H](NC(=O)c1cc(-c2ccc(F)cc2)nn1CCCCCF)C(N)=O` [Example 321, (S)-N-(1-amino-3-methyl-1-oxobutan-2-yl)-1-(5-fluoropentyl)-3-(4-fluorophenyl)-1H-pyrazole-5-carboxamide] belongs 1.29; to `CC(C)(NC(=O)c1nn(CC2CCOCC2)c2ccccc12)c1ccccc1` [Example 322, N-(1-methyl-1-phenylethyl)-1-[(tetrahydro-2H-pyran-4-yl)methyl]-1H-indazole-3-carboxamide], 1.27; to `CC(C)[C@H](NC(=O)c1cn(Cc2ccccc2)c2ccccc12)C(N)=O` [Example 323, N-[(1S)-1-(aminocarbonyl)-2-methylpropyl]-1-(phenylmethyl)-1H-indole-3-carboxamide], 1.26. For `O=C(c1cn(CCCCCF)c2ccccc12)N1CCN(Cc2ccccc2)CC1` [Example 324, (4-benzylpiperazin-1-yl)(1-(5-fluoropentyl)-1H-indol-3-yl)methanone, monohydrochloride], the fold induction at 35 µM worked out at 1.26. On to `CCCCn1cc(C(=O)c2ccc3ccccc3c2)c2ccccc21` [Example 325, (1-butyl-1H-indol-3-yl)(naphthalen-2-yl)-methanone], for which the fold induction at 35 µM is 1.26.

`CCCCCn1c(C)c(C(=O)c2ccc(C)c3ccccc23)c2ccccc21` [Example 326, (4-methyl-1-naphthalenyl)(2-methyl-1-pentyl-1H-indol-3-yl)-methanone]: the fold induction at 35 µM came to 1.25. Still for that read-out and setting: to `O=C(Oc1ccc2cnccc2c1)c1cn(CC2CCCCC2)c2ccccc12` [Example 327, isoquinolin-6-yl 1-(cyclohexylmethyl)-1H-indole-3-carboxylate] belongs 1.24.

The same test, now with this note: Homo sapiens, COLO 205, 48 h, read-out: Induction Fold.
`CCCCCCC(C)(C)c1cc(OC)c(C2C=C(CO)C3CC2C3(C)C)c(OC)c1` (stereo not shown) [Example 304, 4-[4-(1,1-dimethylheptyl)-2,6-dimethoxyphenyl]-6,6-dimethyl-bicyclo[3.1.1]hept-2-ene-2-methanol]: the fold induction at 35 µM is 1.39.

Still in this test, the particulars now being: MHC-I expression, COLO 205 cells, compounds at 35 μM, 48 hours, flow cytometry (W6/32).
As for `O=C(NC12CC3CC(CC(C3)C1)C2)c1nn(CCCCCF)c2ccccc12` [Example 309, N-((3s,5s,7s)-adamantan-1-yl)-1-(5-fluoropentyl)-1H-indazole-3-carboxamide], the “Induction Fold” value is recorded as 1.37 Fold. Same read-out and setting: to `O=C(Oc1cccc2cccnc12)c1nn(CCCCCF)c2ccccc12` [Example 311, 1-(5-fluoropentyl)-8-quinolinyl ester-1H-indazole-3-carboxylic acid] belongs 1.36 Fold; to `O=C(NC12CC3CC(CC(C3)C1)C2)c1cn(CCCCCF)c2ccccc12` [Example 319, 1-(5-fluoropentyl)-N-tricyclo[3.3.1.13,7] dec-1-yl-1H-indole-3-carboxamide], 1.31 Fold.
